Where no end group is shown, it is not given here.
What was measured:
Assay type in all cases: cell-based
[1] = tested on: fibroblast growth factor 21 (FGF21); experiment: Western blot of FGF21 protein expression in adipocytes; conditions: differentiated 3T3-L1 adipocytes; 0.2, 2, 20 μg/mL; 1 hour; Western blot (FIGS. 1a, 1b)
Protocol: An experiment was performed to determine whether the peptide complex prepared in Preparation Example 1 using adipocytes increases the phosphorylation of AMP-activated protein kinase (AMPK), which is a longevity-related protein, and increases the expression levels of sirtuin 1 (SIRT1) and fibroblast growth factor 21 (FGF21) proteins in adipocytes.
(§1) When 3T3-L1 preadipocytes reached 80% confluence, they were seeded at 5×10^3 cells/well in a 96-well plate and used for the experiment. Two days after reaching confluence, the medium was replaced with a differentiation-inducing medium to induce the differentiation into adipocytes, and two days after the induction, the cells were cultured for 2 days in a medium containing 10% FBS and 10 μg/mL insulin, and then the medium was replaced with 10% FBS every 2 days until their differentiation into adipocytes. Once the differentiation was complete, the medium was replaced with a serum-free medium and cultured for 4 hours to induce starvation. The peptide complexes were treated at concentrations of 0.2 μg/mL, 2 μg/mL, and 20 μg/mL, incubated for 1 hour, dissolved by adding dissolution buffer thereto, and the proteins obtained by centrifugation at 4° C. and 12,000 rpm for 30 minutes were quantified using a BCA kit. […]

[2] = tested on: AMP-activated protein kinase (AMPK); experiment: Western blot of AMPK phosphorylation in palmitate-treated adipocytes (insulin metabolic disorder); conditions: 3T3-L1 adipocytes, 25 μM palmitate 30 minutes; 0.2, 2, 20 μg/mL; 24 hours; Western blot (FIGS. 3a, 3b)
Protocol: An experiment was performed to determine whether the peptide complex prepared in Preparation Example 1 increases the phosphorylation of AMP-activated protein kinase (AMPK) and the expression level of SIRT1 (sirtuin1) protein in adipocytes in a state of insulin metabolic disorder induced by palmitate treatment.
as §1, with “Once” for “Once the”, “starvation. After 30 minutes of treatment with 25 μM palmitate, the” for “starvation. The”, “20 μg/mL and” for “20 μg/mL,”, “for 24 hours. After dissolving” for “for 1 hour, dissolved”, “dissolution buffer,” for “dissolution buffer thereto, and”

[3] = tested on: IκBα; experiment: Western blot of IκBα phosphorylation in adipocytes with palmitate-induced inflammation; conditions: 3T3-L1 adipocytes, inflammation induced by 25 μM palmitate; 0.2, 2, 20 μg/mL; 24 hours; Western blot vs PA control (FIGS. 5a, 5b)
Protocol: (§2) An experiment was performed to determine whether the peptide complex prepared in Preparation Example 1 induces a decrease in the phosphorylation of IκBα and a decrease in the expression level of the inflammatory cytokine TNFα in adipocytes under an inflammatory state induced by palmitate treatment.
(§3) When 3T3-L1 preadipocytes reached 80% confluence, they were seeded at 5×10^3 cells/well in a 96-well plate and used for the experiment. Two days after reaching confluence, the medium was replaced with a differentiation-inducing medium to induce the differentiation into adipocytes. Two days after the induction, the cells were cultured for 2 days in a medium containing 10% FBS and 10 μg/mL insulin, and then the medium was replaced with 10% FBS every days 2 until their differentiation into adipocytes. Once the differentiation was complete, the medium was replaced with a serum-free medium and cultured for 4 hours to induce starvation. After treating with 25 μM palmitate for 30 minutes, the peptide complexes were treated at concentrations of 0.2 μg/mL, 2 μg/mL, and 20 μg/mL and incubated for 24 hours. The control group (PA) was treated only with palmitate but not with the peptide complex. After dissolving by adding dissolution buffer thereto, the proteins obtained by centrifugation at 4° C. and 12,000 rpm for 30 minutes were quantified using a BCA kit. […]

[4] = tested on: inflammatory cytokine TNFα; experiment: Western blot of TNFα expression in adipocytes with palmitate-induced inflammation; conditions: 3T3-L1 adipocytes, inflammation induced by 25 μM palmitate; 0.2, 2, 20 μg/mL; 24 hours; Western blot vs PA control (FIGS. 5a, 5b)
Protocol: as §2, §3

peptide complex: prepared by mixing equal amounts of the peptide of SEQ ID NO: 1 (LKTRN) and the peptide of SEQ ID NO: 2 (KGSATGWMA) (also: mixture of two peptides)
expression level of FGF21 protein [1]: increased | phosphorylation of AMPKα [2]: increased | phosphorylation of IκBα [3]: reduced | expression level of TNFα [4]: reduced
